{"source": "patent US8933230B2", "about": "“Phosphorus-containing group-substituted quinoline, its preparation process, medical composition containing the compounds and application” (priority 2011, dated 2015)", "test_in_all_cases": "KinomeScan kinase panel", "assay_type_in_all_cases": "binding", "key": {"PRKCQ": {"target": "T1, PRKCQ (Homo sapiens, UniProt Q04759)", "T1 construct": "purchased DiscoveRx Corporation (KinomeScan)", "method_in_brief": "(§1)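 The compound was profiled across a 442-kinase KinomeScan binding panel at a fixed concentration of 1000 nM; values reflect inhibitory effect at that one dose.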"}, "LCK": {"target": "T2, LCK (Homo sapiens, UniProt P06239)", "T2 construct": "purchased DiscoveRx Corporation (KinomeScan)", "method_in_brief": "as §1"}, "FGFR3": {"target": "T3, FGFR3 (Homo sapiens, UniProt P22607)", "T3 construct": "purchased DiscoveRx Corporation (KinomeScan)", "T3 sequence (P22607 23-806)": "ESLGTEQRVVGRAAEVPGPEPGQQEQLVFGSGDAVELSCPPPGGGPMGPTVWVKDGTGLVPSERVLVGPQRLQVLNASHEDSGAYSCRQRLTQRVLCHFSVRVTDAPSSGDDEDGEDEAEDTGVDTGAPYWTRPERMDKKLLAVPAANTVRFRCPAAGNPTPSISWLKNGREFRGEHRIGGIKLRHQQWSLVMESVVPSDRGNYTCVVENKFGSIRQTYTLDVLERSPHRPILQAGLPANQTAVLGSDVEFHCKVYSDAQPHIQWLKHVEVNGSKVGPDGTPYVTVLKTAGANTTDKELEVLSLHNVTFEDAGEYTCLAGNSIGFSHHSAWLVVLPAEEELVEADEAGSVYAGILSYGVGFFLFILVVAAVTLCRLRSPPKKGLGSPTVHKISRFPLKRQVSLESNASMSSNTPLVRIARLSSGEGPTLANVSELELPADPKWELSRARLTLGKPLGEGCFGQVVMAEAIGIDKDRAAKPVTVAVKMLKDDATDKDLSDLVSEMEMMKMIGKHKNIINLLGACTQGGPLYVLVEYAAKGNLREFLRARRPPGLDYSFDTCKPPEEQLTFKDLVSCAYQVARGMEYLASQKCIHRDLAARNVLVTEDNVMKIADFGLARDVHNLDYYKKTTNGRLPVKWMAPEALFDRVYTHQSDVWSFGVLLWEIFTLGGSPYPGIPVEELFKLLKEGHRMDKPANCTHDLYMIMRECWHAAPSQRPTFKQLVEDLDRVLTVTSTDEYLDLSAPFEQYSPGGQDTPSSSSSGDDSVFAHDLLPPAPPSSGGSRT", "method_in_brief": "as §1"}, "KIT(V559D)": {"target": "T4, KIT(V559D) (Homo sapiens, UniProt P10721, V559D)", "T4 construct": "purchased DiscoveRx Corporation (KinomeScan)", "T4 sequence (P10721 26-976 V559D)": "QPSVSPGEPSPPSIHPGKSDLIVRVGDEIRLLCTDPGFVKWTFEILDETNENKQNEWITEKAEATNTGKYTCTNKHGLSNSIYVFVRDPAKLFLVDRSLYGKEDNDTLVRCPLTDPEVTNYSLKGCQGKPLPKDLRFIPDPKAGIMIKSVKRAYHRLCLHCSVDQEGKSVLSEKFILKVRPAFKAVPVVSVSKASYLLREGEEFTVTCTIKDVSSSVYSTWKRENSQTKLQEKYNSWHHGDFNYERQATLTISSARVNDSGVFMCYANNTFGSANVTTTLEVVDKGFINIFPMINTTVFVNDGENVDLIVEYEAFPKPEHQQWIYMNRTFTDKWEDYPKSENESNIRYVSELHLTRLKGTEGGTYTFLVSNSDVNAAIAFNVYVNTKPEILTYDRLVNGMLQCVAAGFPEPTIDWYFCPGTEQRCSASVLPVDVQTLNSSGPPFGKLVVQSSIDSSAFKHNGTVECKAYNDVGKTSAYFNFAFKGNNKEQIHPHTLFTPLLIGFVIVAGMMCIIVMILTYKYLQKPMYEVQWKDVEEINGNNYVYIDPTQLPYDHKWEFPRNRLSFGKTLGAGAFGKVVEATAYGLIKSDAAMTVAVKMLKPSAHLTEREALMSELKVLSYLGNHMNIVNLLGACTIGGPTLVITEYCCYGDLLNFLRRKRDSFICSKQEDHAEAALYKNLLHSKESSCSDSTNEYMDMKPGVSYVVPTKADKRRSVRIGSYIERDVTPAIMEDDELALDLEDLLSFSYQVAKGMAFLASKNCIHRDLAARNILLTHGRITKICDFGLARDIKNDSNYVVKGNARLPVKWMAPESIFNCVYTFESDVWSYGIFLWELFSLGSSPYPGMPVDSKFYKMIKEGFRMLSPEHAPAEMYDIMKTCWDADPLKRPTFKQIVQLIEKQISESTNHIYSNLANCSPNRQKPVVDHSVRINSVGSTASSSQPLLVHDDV", "method_in_brief": "as §1"}, "HPK1": {"target": "T5, HPK1 (Homo sapiens, UniProt Q92918)", "T5 construct": "purchased DiscoveRx Corporation (KinomeScan)", "method_in_brief": "as §1"}, "IRAK3": {"target": "T6, IRAK3 (Homo sapiens, UniProt Q9Y616)", "T6 construct": "purchased DiscoveRx Corporation (KinomeScan)", "method_in_brief": "as §1"}, "MARK3": {"target": "T7, MARK3 (Homo sapiens, UniProt P27448)", "T7 construct": "purchased DiscoveRx Corporation (KinomeScan)", "method_in_brief": "as §1"}, "GRK1": {"target": "T8, GRK1 (Homo sapiens, UniProt Q15835)", "T8 construct": "purchased DiscoveRx Corporation (KinomeScan)", "method_in_brief": "as §1"}, "GAK": {"target": "T9, GAK (Homo sapiens, UniProt O14976)", "T9 construct": "purchased DiscoveRx Corporation (KinomeScan)", "method_in_brief": "as §1"}, "CSNK1G3": {"target": "T10, CSNK1G3 (Homo sapiens, UniProt Q9Y6M4)", "T10 construct": "purchased DiscoveRx Corporation (KinomeScan)", "method_in_brief": "as §1"}, "LKB1": {"target": "T11, LKB1 (Homo sapiens, UniProt Q15831)", "T11 construct": "purchased DiscoveRx Corporation (KinomeScan)", "method_in_brief": "as §1"}, "FLT3(N841L)": {"test_system": "FLT3(N841L)", "method_in_brief": "as §1"}, "MAP3K3": {"target": "T12, MAP3K3 (Homo sapiens, UniProt Q99759)", "T12 construct": "purchased DiscoveRx Corporation (KinomeScan)", "method_in_brief": "as §1"}, "[1]": {"target": "T13, ABL1(F317L)-phosphorylated (Homo sapiens, UniProt P00519, F317L)", "T13 construct": "purchased DiscoveRx Corporation (KinomeScan)", "T13 sequence (P00519 whole entry F317L)": "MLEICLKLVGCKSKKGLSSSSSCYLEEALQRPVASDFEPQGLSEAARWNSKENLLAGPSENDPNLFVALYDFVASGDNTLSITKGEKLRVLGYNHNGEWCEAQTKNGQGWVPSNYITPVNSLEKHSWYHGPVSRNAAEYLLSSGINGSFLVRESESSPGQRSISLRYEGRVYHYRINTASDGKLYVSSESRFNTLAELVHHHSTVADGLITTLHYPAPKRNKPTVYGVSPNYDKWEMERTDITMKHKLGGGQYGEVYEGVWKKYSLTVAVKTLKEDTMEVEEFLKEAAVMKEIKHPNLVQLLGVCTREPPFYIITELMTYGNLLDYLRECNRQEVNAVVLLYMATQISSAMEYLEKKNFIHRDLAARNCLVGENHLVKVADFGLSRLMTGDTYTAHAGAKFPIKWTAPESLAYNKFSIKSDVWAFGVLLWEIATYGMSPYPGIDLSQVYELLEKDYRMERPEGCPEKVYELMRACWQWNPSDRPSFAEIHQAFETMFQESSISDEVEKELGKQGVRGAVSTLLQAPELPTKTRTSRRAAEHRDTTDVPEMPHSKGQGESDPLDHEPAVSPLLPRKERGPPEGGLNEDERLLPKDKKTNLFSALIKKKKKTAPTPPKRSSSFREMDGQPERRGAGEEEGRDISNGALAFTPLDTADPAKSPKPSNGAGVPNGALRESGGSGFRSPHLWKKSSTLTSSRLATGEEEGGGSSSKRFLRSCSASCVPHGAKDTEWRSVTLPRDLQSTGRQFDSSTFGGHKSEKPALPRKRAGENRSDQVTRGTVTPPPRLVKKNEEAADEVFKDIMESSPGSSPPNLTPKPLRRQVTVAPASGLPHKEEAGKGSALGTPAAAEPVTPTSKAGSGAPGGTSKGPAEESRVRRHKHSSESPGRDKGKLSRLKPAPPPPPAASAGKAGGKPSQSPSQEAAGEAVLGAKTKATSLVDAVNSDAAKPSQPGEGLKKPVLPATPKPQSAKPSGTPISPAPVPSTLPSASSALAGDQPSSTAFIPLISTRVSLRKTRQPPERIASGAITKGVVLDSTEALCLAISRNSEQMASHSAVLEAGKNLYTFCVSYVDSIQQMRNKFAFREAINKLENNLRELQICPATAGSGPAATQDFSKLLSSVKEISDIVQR", "method_in_brief": "as §1"}, "CDK4-cyclinD3": {"target": "T14, CDK4-cyclinD3 (Homo sapiens, UniProt P11802)", "T14 construct": "purchased DiscoveRx Corporation (KinomeScan)", "method_in_brief": "as §1"}, "QSK": {"target": "T15, QSK (Homo sapiens, UniProt Q9Y2K2)", "T15 construct": "purchased DiscoveRx Corporation", "method_in_brief": "as §1"}, "PAK6": {"target": "T16, PAK6 (Homo sapiens, UniProt Q9NQU5)", "T16 construct": "purchased DiscoveRx Corporation (KinomeScan panel)", "method_in_brief": "as §1"}, "PAK3": {"target": "T17, PAK3 (Homo sapiens, UniProt O75914)", "T17 construct": "purchased DiscoveRx Corporation (KinomeScan panel)", "method_in_brief": "as §1"}, "PRKR": {"target": "T18, PRKR (Homo sapiens, UniProt P19525)", "T18 construct": "purchased DiscoveRx Corporation (KinomeScan)", "method_in_brief": "as §1"}, "HIPK3": {"target": "T19, HIPK3 (Homo sapiens, UniProt Q9H422)", "T19 construct": "purchased DiscoveRx Corporation (KinomeScan)", "method_in_brief": "as §1"}, "RET": {"target": "T20, RET (Homo sapiens, UniProt P07949)", "T20 construct": "purchased DiscoveRx Corporation", "T20 sequence (P07949 29-1114)": "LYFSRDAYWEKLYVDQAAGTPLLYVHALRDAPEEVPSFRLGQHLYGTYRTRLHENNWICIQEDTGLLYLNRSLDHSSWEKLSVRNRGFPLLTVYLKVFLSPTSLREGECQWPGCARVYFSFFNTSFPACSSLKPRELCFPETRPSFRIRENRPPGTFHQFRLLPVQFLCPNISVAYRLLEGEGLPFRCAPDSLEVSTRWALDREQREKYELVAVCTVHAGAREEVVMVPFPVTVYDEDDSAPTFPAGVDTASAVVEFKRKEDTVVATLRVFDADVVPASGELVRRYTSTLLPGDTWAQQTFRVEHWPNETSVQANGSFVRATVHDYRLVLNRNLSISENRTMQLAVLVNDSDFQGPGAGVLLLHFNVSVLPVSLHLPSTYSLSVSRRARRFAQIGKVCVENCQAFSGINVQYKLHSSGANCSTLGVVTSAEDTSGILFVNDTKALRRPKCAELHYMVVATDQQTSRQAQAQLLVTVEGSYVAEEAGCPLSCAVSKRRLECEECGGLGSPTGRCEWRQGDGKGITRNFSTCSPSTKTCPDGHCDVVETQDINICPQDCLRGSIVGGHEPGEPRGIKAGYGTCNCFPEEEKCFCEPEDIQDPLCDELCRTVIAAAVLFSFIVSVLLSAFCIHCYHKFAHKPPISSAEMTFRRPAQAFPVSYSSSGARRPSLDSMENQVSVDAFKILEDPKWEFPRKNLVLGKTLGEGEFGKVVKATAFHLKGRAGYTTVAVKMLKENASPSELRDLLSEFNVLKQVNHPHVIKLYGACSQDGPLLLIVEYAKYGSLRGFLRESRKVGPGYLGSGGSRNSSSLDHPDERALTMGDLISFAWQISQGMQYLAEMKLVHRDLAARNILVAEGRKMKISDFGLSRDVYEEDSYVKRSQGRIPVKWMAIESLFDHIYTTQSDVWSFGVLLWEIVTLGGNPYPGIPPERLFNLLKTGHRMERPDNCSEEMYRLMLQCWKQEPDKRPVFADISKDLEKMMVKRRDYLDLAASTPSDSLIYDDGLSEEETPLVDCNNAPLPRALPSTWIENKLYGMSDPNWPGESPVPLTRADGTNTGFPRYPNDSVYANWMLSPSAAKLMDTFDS", "method_in_brief": "as §1"}, "NEK11": {"target": "T21, NEK11 (Homo sapiens, UniProt Q8NG66)", "T21 construct": "purchased DiscoveRx Corporation (KinomeScan)", "method_in_brief": "as §1"}, "YANK1": {"target": "T22, YANK1 (Homo sapiens, UniProt Q8WU08)", "T22 construct": "purchased DiscoveRx Corporation (KinomeScan service)", "method_in_brief": "as §1"}, "[2]": {"target": "T23, RSK3(Kin.Dom.1-N-terminal) (Homo sapiens, UniProt Q15349)", "T23 construct": "Kin.Dom.1; purchased DiscoveRx Corporation (KinomeScan)", "method_in_brief": "as §1"}, "PYK2": {"target": "T24, PYK2 (Homo sapiens, UniProt Q14289)", "T24 construct": "purchased DiscoveRx Corporation", "method_in_brief": "as §1"}, "RIPK1": {"target": "T25, RIPK1 (Homo sapiens, UniProt Q13546)", "T25 construct": "purchased DiscoveRx Corporation", "method_in_brief": "as §1"}, "[3]": {"target": "T26, RSK1(Kin.Dom.2-C-terminal) (Homo sapiens, UniProt Q15418)", "T26 construct": "Kin.Dom.2; purchased DiscoveRx Corporation", "method_in_brief": "as §1"}, "MEK6": {"target": "T27, MEK6 (Homo sapiens, UniProt P52564)", "T27 construct": "purchased DiscoveRx Corporation (KinomeScan)", "method_in_brief": "as §1"}, "S6K1": {"target": "T28, S6K1 (Homo sapiens, UniProt P23443)", "T28 construct": "purchased DiscoveRx Corporation (KinomeScan)", "method_in_brief": "as §1"}, "PCTK3": {"target": "T29, PCTK3 (Homo sapiens, UniProt Q07002)", "T29 construct": "purchased DiscoveRx Corporation (KinomeScan panel)", "method_in_brief": "as §1"}, "ABL1-nonphosphorylated": {"target": "T30, ABL1-nonphosphorylated (Homo sapiens, UniProt P00519)", "T30 construct": "purchased DiscoveRx Corporation (KinomeScan)", "method_in_brief": "as §1"}, "HIPK4": {"target": "T31, HIPK4 (Homo sapiens, UniProt Q8NE63)", "T31 construct": "purchased DiscoveRx Corporation (KinomeScan)", "method_in_brief": "as §1"}, "CSNK1G2": {"target": "T32, CSNK1G2 (Homo sapiens, UniProt P78368)", "T32 construct": "purchased DiscoveRx Corporation (KinomeScan)", "method_in_brief": "as §1"}, "EPHA4": {"target": "T33, EPHA4 (Homo sapiens, UniProt P54764)", "T33 construct": "purchased DiscoveRx Corporation (KinomeScan)", "T33 sequence (P54764 20-986)": "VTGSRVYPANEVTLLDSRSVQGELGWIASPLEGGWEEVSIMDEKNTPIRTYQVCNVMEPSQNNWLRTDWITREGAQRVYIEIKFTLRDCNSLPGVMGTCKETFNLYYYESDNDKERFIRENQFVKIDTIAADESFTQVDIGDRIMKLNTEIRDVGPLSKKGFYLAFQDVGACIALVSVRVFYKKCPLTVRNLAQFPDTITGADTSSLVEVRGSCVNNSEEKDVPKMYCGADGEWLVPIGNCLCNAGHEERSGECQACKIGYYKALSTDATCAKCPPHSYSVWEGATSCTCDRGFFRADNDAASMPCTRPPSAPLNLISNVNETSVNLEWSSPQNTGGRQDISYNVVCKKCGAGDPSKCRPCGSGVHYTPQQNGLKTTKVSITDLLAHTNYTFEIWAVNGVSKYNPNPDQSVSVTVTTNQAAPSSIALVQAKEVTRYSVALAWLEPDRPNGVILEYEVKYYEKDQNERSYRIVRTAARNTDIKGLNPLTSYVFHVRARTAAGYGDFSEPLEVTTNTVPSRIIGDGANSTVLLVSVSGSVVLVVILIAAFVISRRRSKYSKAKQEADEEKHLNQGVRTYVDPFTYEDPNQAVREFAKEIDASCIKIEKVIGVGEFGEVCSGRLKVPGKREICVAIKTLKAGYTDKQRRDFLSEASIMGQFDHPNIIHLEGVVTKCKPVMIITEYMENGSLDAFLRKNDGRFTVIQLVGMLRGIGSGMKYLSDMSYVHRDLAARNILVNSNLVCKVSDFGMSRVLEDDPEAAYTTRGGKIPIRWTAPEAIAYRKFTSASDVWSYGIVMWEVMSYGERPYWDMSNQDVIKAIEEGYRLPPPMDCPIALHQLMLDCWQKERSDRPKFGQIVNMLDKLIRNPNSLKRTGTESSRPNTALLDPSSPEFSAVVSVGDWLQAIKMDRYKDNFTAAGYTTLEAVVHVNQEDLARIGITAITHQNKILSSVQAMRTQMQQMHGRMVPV", "method_in_brief": "as §1"}, "RIOK1": {"target": "T34, RIOK1 (Homo sapiens, UniProt Q9BRS2)", "T34 construct": "purchased DiscoveRx Corporation", "method_in_brief": "as §1"}}, "data": [{"smiles": "CCOP(=O)(CN1CCC(COc2cc3nccc(Oc4ccc(NC(=O)C5(C(=O)Nc6ccc(F)cc6)CC5)cc4F)c3cc2OC)CC1)OCC", "note": "[Example 10, N1-[4-[[7-[[1-(diethoxyphosphorylmethyl)-4-piperidinyl]methoxyl]-6-methoxyl-4-quinolyl]oxyl]-3-fluorophenyl]-N1′-(4-fluorophenyl)cyclopropane-1,1-dicarboxamide]", "values": [{"measurement": "% Ctrl@1000 nM", "setting": "PRKCQ", "value": 100, "unit": "% Ctrl"}, {"measurement": "% Ctrl@1000 nM", "setting": "LCK", "value": 2.2, "unit": "% Ctrl"}, {"measurement": "% Ctrl@1000 nM", "setting": "FGFR3", "value": 69, "unit": "% Ctrl"}, {"measurement": "% Ctrl@1000 nM", "setting": "KIT(V559D)", "value": 0.15, "unit": "% Ctrl"}, {"measurement": "% Ctrl@1000 nM", "setting": "HPK1", "value": 40, "unit": "% Ctrl"}, {"measurement": "% Ctrl@1000 nM", "setting": "IRAK3", "value": 33, "unit": "% Ctrl"}, {"measurement": "% Ctrl@1000 nM", "setting": "MARK3", "value": 100, "unit": "% Ctrl"}, {"measurement": "% Ctrl@1000 nM", "setting": "GRK1", "value": 100, "unit": "% Ctrl"}, {"measurement": "% Ctrl@1000 nM", "setting": "GAK", "value": 100, "unit": "% Ctrl"}, {"measurement": "% Ctrl@1000 nM", "setting": "CSNK1G3", "value": 100, "unit": "% Ctrl"}, {"measurement": "% Ctrl@1000 nM", "setting": "LKB1", "value": 100, "unit": "% Ctrl"}, {"measurement": "% Ctrl@1000 nM", "setting": "FLT3(N841L)", "value": 0, "unit": "% Ctrl"}, {"measurement": "% Ctrl@1000 nM", "setting": "MAP3K3", "value": 100, "unit": "% Ctrl"}, {"measurement": "% Ctrl@1000 nM", "setting": "[1]", "value": 69, "unit": "% Ctrl"}, {"measurement": "% Ctrl@1000 nM", "setting": "CDK4-cyclinD3", "value": 100, "unit": "% Ctrl"}, {"measurement": "% Ctrl@1000 nM", "setting": "QSK", "value": 100, "unit": "% Ctrl"}, {"measurement": "% Ctrl@1000 nM", "setting": "PAK6", "value": 87, "unit": "% Ctrl"}, {"measurement": "% Ctrl@1000 nM", "setting": "PAK3", "value": 32, "unit": "% Ctrl"}, {"measurement": "% Ctrl@1000 nM", "setting": "PRKR", "value": 100, "unit": "% Ctrl"}, {"measurement": "% Ctrl@1000 nM", "setting": "HIPK3", "value": 66, "unit": "% Ctrl"}, {"measurement": "% Ctrl@1000 nM", "setting": "RET", "value": 0.1, "unit": "% Ctrl"}, {"measurement": "% Ctrl@1000 nM", "setting": "NEK11", "value": 100, "unit": "% Ctrl"}, {"measurement": "% Ctrl@1000 nM", "setting": "YANK1", "value": 100, "unit": "% Ctrl"}, {"measurement": "% Ctrl@1000 nM", "setting": "[2]", "value": 100, "unit": "% Ctrl"}, {"measurement": "% Ctrl@1000 nM", "setting": "PYK2", "value": 19, "unit": "% Ctrl"}, {"measurement": "% Ctrl@1000 nM", "setting": "RIPK1", "value": 99, "unit": "% Ctrl"}, {"measurement": "% Ctrl@1000 nM", "setting": "[3]", "value": 100, "unit": "% Ctrl"}, {"measurement": "% Ctrl@1000 nM", "setting": "MEK6", "value": 87, "unit": "% Ctrl"}, {"measurement": "% Ctrl@1000 nM", "setting": "S6K1", "value": 89, "unit": "% Ctrl"}, {"measurement": "% Ctrl@1000 nM", "setting": "PCTK3", "value": 100, "unit": "% Ctrl"}, {"measurement": "% Ctrl@1000 nM", "setting": "ABL1-nonphosphorylated", "value": 1.8, "unit": "% Ctrl"}, {"measurement": "% Ctrl@1000 nM", "setting": "HIPK4", "value": 0.15, "unit": "% Ctrl"}, {"measurement": "% Ctrl@1000 nM", "setting": "CSNK1G2", "value": 100, "unit": "% Ctrl"}, {"measurement": "% Ctrl@1000 nM", "setting": "EPHA4", "value": 4, "unit": "% Ctrl"}, {"measurement": "% Ctrl@1000 nM", "setting": "RIOK1", "value": 100, "unit": "% Ctrl"}]}]}
